US6706740B2, “Fungicidal heterocyclic aromatic amides and their compositions, methods of use and preparation” (Dow AgroSciences LLC, priority 1999, dated 2004)

test system: Rhizoctonia solani (RHIZSO); experiment: microbe, parasite or virus in culture; format: cell-based; settings: Rhizoctonia solani, read-out: RHIZSO in vitro Growth Inhibition

Compound | inhibition at 25 ppm [%]
COC(=O)C(Cc1ccc(OCc2ccccc2)cc1)NC(=O)c1nccc(OC)c1O (single isomer, unassigned) [Compound 338] | < 80
COc1ccnc(C(=O)NC(COC(=O)C(Cc2ccccc2)C(C)O[Si](C)(C)C(C)(C)C)C(=O)OC(C)C)c1O (stereo not drawn) [Compound 357] | < 80
COc1ccnc(C(=O)N[C@H]2COC(=O)[C@H](Cc3ccccc3)[C@@H](OC(=O)/C=C(\C)CCC=C(C)C)[C@H](C)OC2=O)c1O [Compound 396] | < 80

test system: Erysiphe graminis—ERYSGT; experiment: Powdery Mildew of Wheat, in vivo whole plant, 24 Hour Protectant; settings: Erysiphe; 100 ppm spray, wheat, 24 hour protectant; control of fungal infection vs untreated plants; read-out: ERYSGT in vivo 1 Day Protectant

Compound | pest or weed control at 100 ppm [%]
COC(=O)C(Cc1ccc(OCc2ccccc2)cc1)NC(=O)c1nccc(OC)c1O (single isomer, unassigned) [Compound 338] | < 25
COc1ccnc(C(=O)NC(COC(=O)C(Cc2ccccc2)C(C)O[Si](C)(C)C(C)(C)C)C(=O)OC(C)C)c1O (stereo not drawn) [Compound 357] | < 25
COc1ccnc(C(=O)N[C@H]2COC(=O)[C@H](Cc3ccccc3)[C@@H](OC(=O)/C=C(\C)CCC=C(C)C)[C@H](C)OC2=O)c1O [Compound 396] | < 25

test system: Puccinia recondita—PUCCRT; experiment: Brown Rust of Wheat, in vivo whole plant, 24 Hour Protectant; settings: 100 ppm spray, wheat, 24 hour protectant; control of fungal infection vs untreated plants

Compound | PUCCRT in vivo 1 Day Protectant
COC(=O)C(Cc1ccc(OCc2ccccc2)cc1)NC(=O)c1nccc(OC)c1O (single isomer, unassigned) [Compound 338] | + +
COc1ccnc(C(=O)NC(COC(=O)C(Cc2ccccc2)C(C)O[Si](C)(C)C(C)(C)C)C(=O)OC(C)C)c1O (stereo not drawn) [Compound 357] | + +

same assay, conditions: Puccinia; 100 ppm spray, wheat, 24 hour protectant; control of fungal infection vs untreated plants; read-out: PUCCRT in vivo 1 Day Protectant

Compound | pest or weed control at 100 ppm [%]
COc1ccnc(C(=O)N[C@H]2COC(=O)[C@H](Cc3ccccc3)[C@@H](OC(=O)/C=C(\C)CCC=C(C)C)[C@H](C)OC2=O)c1O [Compound 396] | 25 to 74

test system: Mycosphaerella graminicola (Septoria tritici—SEPTTR); experiment: In vitro fungal growth inhibition, Mycosphaerella graminicola (SEPTTR); format: cell-based; settings: Zymoseptoria tritici, read-out: SEPTTR in vitro Growth Inhibition

Compound | inhibition at 25 ppm [%]
COc1ccnc(C(=O)NC(COC(=O)C(Cc2ccccc2)C(C)O[Si](C)(C)C(C)(C)C)C(=O)OC(C)C)c1O (stereo not drawn) [Compound 357] | < 80

same assay, conditions: Zymoseptoria tritici; 25 ppm in growth medium; read-out: SEPTTR in vitro Growth Inhibition

Compound | inhibition at 25 ppm [%]
COC(=O)C(Cc1ccc(OCc2ccccc2)cc1)NC(=O)c1nccc(OC)c1O (single isomer, unassigned) [Compound 338] | < 80
COc1ccnc(C(=O)N[C@H]2COC(=O)[C@H](Cc3ccccc3)[C@@H](OC(=O)/C=C(\C)CCC=C(C)C)[C@H](C)OC2=O)c1O [Compound 396] | > 80

test system: Stagonospora nodorum (Leptosphaeria nodorum—LEPTNO); experiment: In vitro fungal growth inhibition, Stagonospora nodorum (LEPTNO); format: cell-based; settings: Leptosphaeria, read-out: LEPTNO in vitro Growth Inhibition

Compound | inhibition at 25 ppm [%]
COc1ccnc(C(=O)NC(COC(=O)C(Cc2ccccc2)C(C)O[Si](C)(C)C(C)(C)C)C(=O)OC(C)C)c1O (stereo not drawn) [Compound 357] | < 80

same assay, conditions: Leptosphaeria; 25 ppm in growth medium; read-out: LEPTNO in vitro Growth Inhibition

Compound | inhibition at 25 ppm [%]
COC(=O)C(Cc1ccc(OCc2ccccc2)cc1)NC(=O)c1nccc(OC)c1O (single isomer, unassigned) [Compound 338] | < 80
COc1ccnc(C(=O)N[C@H]2COC(=O)[C@H](Cc3ccccc3)[C@@H](OC(=O)/C=C(\C)CCC=C(C)C)[C@H](C)OC2=O)c1O [Compound 396] | > 80

test system: Phytophthora infestans—PHYTIN; experiment: whole plant or invertebrate; format: in vivo; settings: Phytophthora, in Solanum lycopersicum, 24 h, read-out: PHYTIN in vivo 1 Day Protectant

Compound | pest or weed control at 100 ppm [%]
COC(=O)C(Cc1ccc(OCc2ccccc2)cc1)NC(=O)c1nccc(OC)c1O (single isomer, unassigned) [Compound 338] | < 25
COc1ccnc(C(=O)NC(COC(=O)C(Cc2ccccc2)C(C)O[Si](C)(C)C(C)(C)C)C(=O)OC(C)C)c1O (stereo not drawn) [Compound 357] | < 25
COc1ccnc(C(=O)N[C@H]2COC(=O)[C@H](Cc3ccccc3)[C@@H](OC(=O)/C=C(\C)CCC=C(C)C)[C@H](C)OC2=O)c1O [Compound 396] | < 25

test system: Ustilago maydis (USTIMA); experiment: microbe, parasite or virus in culture; format: cell-based; settings: Mycosarcoma maydis, read-out: USTIMA in vitro Growth Inhibition

Compound | inhibition at 25 ppm [%]
COC(=O)C(Cc1ccc(OCc2ccccc2)cc1)NC(=O)c1nccc(OC)c1O (single isomer, unassigned) [Compound 338] | > 80
COc1ccnc(C(=O)NC(COC(=O)C(Cc2ccccc2)C(C)O[Si](C)(C)C(C)(C)C)C(=O)OC(C)C)c1O (stereo not drawn) [Compound 357] | < 80
COc1ccnc(C(=O)N[C@H]2COC(=O)[C@H](Cc3ccccc3)[C@@H](OC(=O)/C=C(\C)CCC=C(C)C)[C@H](C)OC2=O)c1O [Compound 396] | < 80

test system: Leptosphaeria nodorum—LEPTNO; experiment: Glume Blotch of Wheat, in vivo whole plant, 24 Hour Protectant; settings: 100 ppm spray, wheat, 24 hour protectant; control of fungal infection vs untreated plants

Compound | LEPTNO in vivo 1 Day Protectant
COC(=O)C(Cc1ccc(OCc2ccccc2)cc1)NC(=O)c1nccc(OC)c1O (single isomer, unassigned) [Compound 338] | + +

same assay, conditions: Leptosphaeria; 100 ppm spray, wheat, 24 hour protectant; control of fungal infection vs untreated plants; read-out: LEPTNO in vivo 1 Day Protectant

Compound | pest or weed control at 100 ppm [%]
COc1ccnc(C(=O)NC(COC(=O)C(Cc2ccccc2)C(C)O[Si](C)(C)C(C)(C)C)C(=O)OC(C)C)c1O (stereo not drawn) [Compound 357] | 25 to 74
COc1ccnc(C(=O)N[C@H]2COC(=O)[C@H](Cc3ccccc3)[C@@H](OC(=O)/C=C(\C)CCC=C(C)C)[C@H](C)OC2=O)c1O [Compound 396] | 25 to 74

test system: Phytophthora infestans (PHYTIN); experiment: microbe, parasite or virus in culture; format: cell-based; settings: Phytophthora infestans, read-out: PHYTIN in vitro Growth Inhibition

Compound | inhibition at 25 ppm [%]
COC(=O)C(Cc1ccc(OCc2ccccc2)cc1)NC(=O)c1nccc(OC)c1O (single isomer, unassigned) [Compound 338] | < 80
COc1ccnc(C(=O)NC(COC(=O)C(Cc2ccccc2)C(C)O[Si](C)(C)C(C)(C)C)C(=O)OC(C)C)c1O (stereo not drawn) [Compound 357] | < 80
COc1ccnc(C(=O)N[C@H]2COC(=O)[C@H](Cc3ccccc3)[C@@H](OC(=O)/C=C(\C)CCC=C(C)C)[C@H](C)OC2=O)c1O [Compound 396] | < 80

test system: Septoria tritici—SEPTTR; experiment: Leaf Blotch of Wheat, in vivo whole plant, 24 Hour Protectant; settings: Zymoseptoria tritici, 24 h, 100 ppm spray, wheat, 24 hour protectant; control of fungal infection vs untreated plants; read-out: SEPTTR in vivo 1 Day Protectant

Compound | pest or weed control at 100 ppm [%]
COC(=O)C(Cc1ccc(OCc2ccccc2)cc1)NC(=O)c1nccc(OC)c1O (single isomer, unassigned) [Compound 338] | 25 to 74
COc1ccnc(C(=O)NC(COC(=O)C(Cc2ccccc2)C(C)O[Si](C)(C)C(C)(C)C)C(=O)OC(C)C)c1O (stereo not drawn) [Compound 357] | < 25
COc1ccnc(C(=O)N[C@H]2COC(=O)[C@H](Cc3ccccc3)[C@@H](OC(=O)/C=C(\C)CCC=C(C)C)[C@H](C)OC2=O)c1O [Compound 396] | 25 to 74

test system: Magnaporthe grisea (Pyricularia oryzae—PYRIOR); experiment: microbe, parasite or virus in culture; format: cell-based; settings: Pyricularia oryzae, read-out: PYRIOR in vitro Growth Inhibition

Compound | inhibition at 25 ppm [%]
COC(=O)C(Cc1ccc(OCc2ccccc2)cc1)NC(=O)c1nccc(OC)c1O (single isomer, unassigned) [Compound 338] | < 80
COc1ccnc(C(=O)NC(COC(=O)C(Cc2ccccc2)C(C)O[Si](C)(C)C(C)(C)C)C(=O)OC(C)C)c1O (stereo not drawn) [Compound 357] | < 80
COc1ccnc(C(=O)N[C@H]2COC(=O)[C@H](Cc3ccccc3)[C@@H](OC(=O)/C=C(\C)CCC=C(C)C)[C@H](C)OC2=O)c1O [Compound 396] | > 80
